Measured values published in patent publication US20240270751A1, “Pyrazolopyridinone Compounds” (BeiGene Ltd., priority 2021, published 2024).

How the values were obtained:
DGKζ = DGKζ (Homo sapiens (Human), UniProt Q13574); assay: Biochemical DGK IC50 assay, DGKζ ADP-Glo assay; settings: 0.5 nM enzyme, 140 μM ATP, 80 μM DAG; read-out: DGKζ ADP-Glo assay IC50
Summary of the method: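 Full-length human DGKζ, His-TEV tagged and purified from baculovirus-infected Sf9 cells, assayed by ADP-Glo with DAG/PS lipid micelle substrate prepared in 25 mM HEPES pH 7.0 with octyl glucoside. Final compound concentrations spanned 1.55–10000 nM or 23.3–150000 nM.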

DGKα = DGKα (Homo sapiens (Human), UniProt P23743); assay: Biochemical DGK IC50 assay, DGKα ADP-Glo assay; settings: 7.5 nM enzyme, 140 μM ATP, 80 μM DAG
Summary of the method: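 ADP-Glo read-out with full-length DGKα on DAG/PS lipid micelle substrate in 25 mM HEPES pH 7.0, 0.5 mM EDTA, 160 mM octyl β-D-glucopyranoside. Compound final concentrations spanned 1.55˜10000 nM or 23.3˜150000 nM.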

Sequence of DGKζ (Q13574 other isoform, or with tags, fused parts or gaps): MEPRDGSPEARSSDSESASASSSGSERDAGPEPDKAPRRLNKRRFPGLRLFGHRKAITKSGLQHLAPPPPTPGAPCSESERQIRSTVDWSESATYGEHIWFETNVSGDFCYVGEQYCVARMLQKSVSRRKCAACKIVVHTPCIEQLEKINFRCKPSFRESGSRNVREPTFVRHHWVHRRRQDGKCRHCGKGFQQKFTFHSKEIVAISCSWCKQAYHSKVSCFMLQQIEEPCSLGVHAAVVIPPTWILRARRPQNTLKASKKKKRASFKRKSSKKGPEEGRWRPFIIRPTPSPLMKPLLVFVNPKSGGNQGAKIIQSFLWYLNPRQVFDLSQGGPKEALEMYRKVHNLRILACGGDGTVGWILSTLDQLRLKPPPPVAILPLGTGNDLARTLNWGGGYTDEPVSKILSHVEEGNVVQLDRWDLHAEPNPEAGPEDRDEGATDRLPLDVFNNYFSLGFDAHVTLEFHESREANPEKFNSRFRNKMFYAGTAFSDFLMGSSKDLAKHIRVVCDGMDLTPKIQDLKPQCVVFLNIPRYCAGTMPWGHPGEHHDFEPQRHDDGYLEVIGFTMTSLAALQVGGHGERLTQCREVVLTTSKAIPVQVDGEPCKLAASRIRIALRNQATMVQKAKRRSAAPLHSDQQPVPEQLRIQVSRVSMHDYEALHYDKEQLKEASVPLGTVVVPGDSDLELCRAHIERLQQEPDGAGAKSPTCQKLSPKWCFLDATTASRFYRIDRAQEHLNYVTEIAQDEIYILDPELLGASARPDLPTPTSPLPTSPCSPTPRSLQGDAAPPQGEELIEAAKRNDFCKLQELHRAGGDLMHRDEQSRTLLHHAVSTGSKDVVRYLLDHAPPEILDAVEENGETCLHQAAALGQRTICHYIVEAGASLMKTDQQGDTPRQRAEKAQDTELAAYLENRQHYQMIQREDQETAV
Sequence of DGKα (P23743 whole entry): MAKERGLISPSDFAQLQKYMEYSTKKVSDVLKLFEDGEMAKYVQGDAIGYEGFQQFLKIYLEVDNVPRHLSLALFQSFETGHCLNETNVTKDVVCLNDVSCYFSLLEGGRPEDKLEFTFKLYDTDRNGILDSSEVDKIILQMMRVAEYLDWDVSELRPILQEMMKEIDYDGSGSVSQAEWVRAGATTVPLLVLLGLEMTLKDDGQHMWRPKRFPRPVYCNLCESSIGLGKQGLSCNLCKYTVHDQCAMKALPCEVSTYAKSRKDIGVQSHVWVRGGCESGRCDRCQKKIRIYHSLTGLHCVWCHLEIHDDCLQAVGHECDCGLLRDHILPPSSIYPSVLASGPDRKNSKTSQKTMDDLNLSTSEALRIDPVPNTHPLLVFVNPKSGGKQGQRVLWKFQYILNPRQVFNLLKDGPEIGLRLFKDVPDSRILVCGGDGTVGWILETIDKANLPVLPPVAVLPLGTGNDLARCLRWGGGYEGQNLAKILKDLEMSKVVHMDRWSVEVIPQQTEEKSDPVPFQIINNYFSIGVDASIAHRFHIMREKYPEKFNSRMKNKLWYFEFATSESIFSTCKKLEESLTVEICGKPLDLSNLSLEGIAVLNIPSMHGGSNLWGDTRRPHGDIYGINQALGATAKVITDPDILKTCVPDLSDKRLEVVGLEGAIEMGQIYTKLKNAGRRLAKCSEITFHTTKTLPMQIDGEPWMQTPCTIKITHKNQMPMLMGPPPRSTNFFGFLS

Row | Compound | IC50 (DGKζ) [nM] | IC50 (DGKα) [nM]
1 | CC(c1ccc2c(c1)C(F)(F)CCO2)N1C[C@H](C)N(c2cc(=O)n(C)c3cn(CC#N)nc23)C[C@H]1C (stereo partly drawn) [Compound A331, 2-(7-((2S,5R)-4-(1-(4,4-difluorochroman-6-yl)ethyl)-2,5-dimethylpiperazin-1-yl)-4-methyl-5-oxo-4,5-dihydro-2H-pyrazolo[4,3-b]pyridin-2-yl)acetonitrile] | 46 | 31800
2 | CC(c1ccc2nccnc2c1)N1C[C@H](C)N(c2cc(=O)[nH]c3cn(CC#N)nc23)C[C@H]1C (single isomer, unassigned) [Compound A260, 2-(7-((2S,5R)-2,5-dimethyl-4-((R)-1-(quinoxalin-6-yl)ethyl)piperazin-1-yl)-5-oxo-4,5-dihydro-2H-pyrazolo[4,3-b]pyridin-2-yl)acetonitrile, or 2-(7-((2S,5R)-2,5-dimethyl-4-((S)-1-(quinoxalin-6-yl)ethyl)piperazin-1-yl)-5-oxo-4,5-dihydro-2H-pyrazolo[4,3-b]pyridin-2-yl)acetonitrile] | 394 | > 10000
3 | CCC1CN(c2c(Br)c(=O)n(C)c3cn(CC#N)nc23)CCN1[C@@H](C)c1ccc2nccnc2c1 (stereo partly drawn) [Compound A179a, 2-(6-bromo-7-((2S,5R)-3-ethyl-4-(1-(quinoxalin-6-yl)ethyl)piperazin-1-yl)-4-methyl-5-oxo-4,5-dihydro-2H-pyrazolo[4,3-b]pyridin-2-yl)acetonitrile] | 7880 | > 10000
4 | CCc1c(C(C)N2C[C@H](CC)N(c3cc(=O)n(C)c4cn(CC#N)nc34)C[C@H]2CC)cnn1C (single isomer, unassigned) [Compound A213a] | 1360 | > 10000
5 | CC[C@@H]1CN(c2cc(=O)n(C)c3cn(CC#N)nc23)[C@@H](COC)CN1C(C)c1ccc2nccnc2c1 (stereo partly drawn) [Compound A225, 2-(7-((2R,5R)-5-ethyl-2-(methoxymethyl)-4-(1-(quinoxalin-6-yl)ethyl)piperazin-1-yl)-4-methyl-5-oxo-4,5-dihydro-2H-pyrazolo[4,3-b]pyridin-2-yl)acetonitrile] | 99 | 7450
6 | CC[C@@H]1CN(c2cc(=O)n(C)c3cn(CC#N)nc23)[C@@H](C)CN1C(C)c1ccc(C(F)(F)F)cc1F (single isomer, unassigned) [Compound A202a] | 176 | 700
7 | CC[C@H]1CN(C(C)c2ccncn2)[C@H](CC)CN1c1cc(=O)n(C)c2cn(CC#N)nc12 (stereo partly drawn) [Compound A131] | 8990 | 287
8 | CC[C@H]1CN(C(C)c2ccc(F)cc2OC)[C@H](CC)CN1c1cc(=O)n(CCO)c2cn(CC#N)nc12 (single isomer, unassigned) [Compound A153a] | 9340 | > 10000
9 | CC[C@H]1CN(C(C)c2ccc3c(c2)NCCO3)[C@H](CC)CN1c1cc(=O)n(C)c2cn(CC#N)nc12 (stereo partly drawn) [Compound A138] | 480 | 1280
10 | CC[C@H]1CN(C(C)c2ccc(C(F)F)cn2)[C@H](CC)CN1c1cc(=O)n(C)c2cn(CC#N)nc12 (single isomer, unassigned) [Compound A347b] | 223 | 8
11 | Cc1c2c(nn1CC#N)c(N1C[C@@H](C)N(C(C)c3ccc(F)cc3C(F)(F)F)C[C@@H]1C)nc(=O)n2C (single isomer, unassigned) [Compound A267a] | > 10000 | > 10000
12 | COc1c(N2C[C@@H](C)N([C@@H](C)c3ccc4nccnc4c3)C[C@@H]2C)c2nn(CC#N)cc2n(C)c1=O [Compound A274, 2-(7-((2S,5R)-2,5-dimethyl-4-((S)-1-(quinoxalin-6-yl)ethyl)piperazin-1-yl)-6-methoxy-4-methyl-5-oxo-4,5-dihydro-2H-pyrazolo[4,3-b]pyridin-2-yl)acetonitrile] | > 10000 | > 10000
13 | Cc1nc2cc(C(C)N3C[C@H](C)N(c4cc(=O)n(C)c5cn(CC#N)nc45)C[C@H]3C)ccc2nc1O (stereo partly drawn) [Compound A316, 2-(7-((2S,5R)-4-(1-(2-hydroxy-3-methylquinoxalin-6-yl)ethyl)-2,5-dimethylpiperazin-1-yl)-4-methyl-5-oxo-4,5-dihydro-2H-pyrazolo[4,3-b]pyridin-2-yl)acetonitrile] | > 10000 | 67000
14 | CC(c1ccc2nccnc2c1)N1C[C@H](CCO)N(c2cc(=O)n(C)c3cn(CC#N)nc23)C[C@H]1C (stereo partly drawn) [Compound A145, 2-(7-((2S,5R)-2-(2-hydroxyethyl)-5-methyl-4-(1-(quinoxalin-6-yl)ethyl)piperazin-1-yl)-4-methyl-5-oxo-4,5-dihydro-2H-pyrazolo[4,3-b]pyridin-2-yl)acetonitrilecetonitrile] | 55 | 20300

Results, then the compound that gave them:

Row | IC50 (DGKζ) [nM] | IC50 (DGKα) [nM] | Compound
15 | 102 | 7080 | CC[C@@H]1CN(c2c(C#N)c(=O)[nH]c3cn(CC#N)nc23)[C@@H](C)CN1C(C)c1ccc2nccnc2c1 (single isomer, unassigned) [Compound A200a]
16 | 353 | 229 | CC[C@H]1CN(C(C)c2ccc(CN3CCOC(C)(C)C3)cc2)[C@H](CC)CN1c1cc(=O)n(C)c2cn(CC#N)nc12 (stereo partly drawn) [Compound A342]
17 | 205 | 852 | CC[C@H]1CN(C(C)c2ccc(C(C)(C)C#N)cc2F)[C@H](CC)CN1c1cc(=O)n(C)c2cn(CC#N)nc12 (stereo partly drawn) [Compound A345, 2-(4-(1-((2R,5S)-4-(2-(cyanomethyl)-4-methyl-5-oxo-4,5-dihydro-2H-pyrazolo[4,3-b]pyridin-7-yl)-2,5-diethylpiperazin-1-yl)ethyl)-3-fluorophenyl)-2-methylpropanenitrile]
18 | 6600 | > 10000 | CC[C@H]1CN(C(C)c2cc(C)ccc2C(F)(F)F)[C@H](CC)CN1c1cc(=O)n(C)c2cn(CC#N)nc12 (stereo partly drawn) [Compound A114]
19 | 9080 | 15 | CC[C@H]1CN(C(C)c2ncccn2)[C@H](CC)CN1c1cc(=O)n(C)c2cn(CC#N)nc12 (stereo partly drawn) [Compound A130]
20 | 91 | > 150000 | COC1(c2cc(F)ccc2C(C)N2C[C@H](C)N(c3cc(=O)n(C)c4cn(CC#N)nc34)C[C@H]2C)CC1 (stereo partly drawn) [Compound A329, 2-(7-((2S,5R)-4-(1-(4-fluoro-2-(1-methoxycyclopropyl)phenyl)ethyl)-2,5-dimethylpiperazin-1-yl)-4-methyl-5-oxo-4,5-dihydro-2H-pyrazolo[4,3-b]pyridin-2-yl)acetonitrile]
21 | 610 | 899 | COc1ccc(C(C)N2C[C@H](C)N(c3cc(=O)n(C)c4cn(CC#N)nc34)C[C@H]2C)cc1 (stereo partly drawn) [Compound A38]
22 | 151 | 63700 | CCc1cc(F)ccc1C(C)N1C[C@H](CC)N(c2cc(=O)n(C)c3cn(CC#N)nc23)C[C@H]1CC (stereo partly drawn) [Compound A205, 2-(7-((2S,5R)-2,5-diethyl-4-(1-(2-ethyl-4-fluorophenyl)ethyl)piperazin-1-yl)-4-methyl-5-oxo-4,5-dihydro-2H-pyrazolo[4,3-b]pyridin-2-yl)acetonitrile]
23 | 556 | 29 | CC[C@H]1CN(C(C)c2ccc(C)cn2)[C@H](CC)CN1c1cc(=O)n(C)c2cn(CC#N)nc12 (stereo partly drawn) [Compound A346]
24 | 7850 | 6170 | CC[C@H]1CN(C(C)c2cccc(NC(C)=O)c2)[C@H](CC)CN1c1cc(=O)n(C)c2cn(CC#N)nc12 (stereo partly drawn) [Compound A109]
25 | 94 | 200 | CC#CCn1cc2c(n1)c(N1C[C@@H](C)N(C(C)c3ccc4nccnc4c3)C[C@@H]1C)cc(=O)n2C (mixture of isomers) [Compound A22, 2-(but-2-yn-1-yl)-7-((2S,5R)-2,5-dimethyl-4-(1-(quinoxalin-6-yl)ethyl)piperazin-1-yl)-4-methyl-2,4-dihydro-5H-pyrazolo[4,3-b]pyridin-5-one]
26 | 1440 | > 10000 | CC[C@H]1CN(C(C)c2nc3cccc(C(F)(F)F)c3n2CC)[C@H](CC)CN1c1cc(=O)n(C)c2cn(CC#N)nc12 (single isomer, unassigned) [Compound A230a]
27 | 299 | 117 | CC[C@H]1CN(C(C)c2ncc(C)cc2F)[C@H](CC)CN1c1cc(=O)n(C)c2cn(CC#N)nc12 (stereo partly drawn) [Compound A359]
28 | 35 | > 10000 | Cc1cnc2ccc(C(C)N3C[C@H](C)N(c4cc(=O)n(C)c5cn(CC#N)nc45)C[C@H]3C)cc2n1 (stereo partly drawn) [Compound A269 (RII), 2-(7-((2S,5R)-2,5-dimethyl-4-(1-(3-methylquinoxalin-6-yl)ethyl)piperazin-1-yl)-4-methyl-5-oxo-4,5-dihydro-2H-pyrazolo[4,3-b]pyridin-2-yl)acetonitrile]
29 | 3430 | > 10000 | CC[C@H]1CN(C(C)c2nc3ccccc3n2CCO)[C@H](CC)CN1c1cc(=O)n(C)c2cn(CC#N)nc12 (stereo partly drawn) [Compound A214]
30 | > 10000 | 118000 | CC(c1ccc2ncc(CO)nc2c1)N1C[C@H](C)N(c2cc(=O)n(C)c3cn(CC#N)nc23)C[C@H]1C (single isomer, unassigned) [Compound A309a]
31 | 183 | > 10000 | CC[C@H]1CN(C(C)c2ccccc2OC)[C@H](CC)CN1c1cc(=O)n(C)c2cn(CC#N)nc12 (single isomer, unassigned) [Compound A106b]
32 | 21 | 8650 | Cc1cnc2ccc([C@H](C)N3C[C@H](C)N(c4c(F)c(=O)n(C)c5cn(CC#N)nc45)C[C@H]3C)cc2n1 [Compound A317, 2-(7-((2S,5R)-2,5-dimethyl-4-((S)-1-(3-methylquinoxalin-6-yl)ethyl)piperazin-1-yl)-6-fluoro-4-methyl-5-oxo-4,5-dihydro-2H-pyrazolo[4,3-b]pyridin-2-yl)acetonitrile]
33 | 5080 | 37700 | CC(c1ccc2c(c1)OCCO2)N1C[C@H](C)N(c2cc(=O)n(C)c3cn(CC#N)nc23)C[C@H]1C (single isomer, unassigned) [Compound A43a]
